What all share (details): Compound concentration 10 µM
For experiment [1], the target named is T1, Alpha-2B adrenergic receptor (Homo sapiens) (UniProt P18089).
T1 sequence (whole entry): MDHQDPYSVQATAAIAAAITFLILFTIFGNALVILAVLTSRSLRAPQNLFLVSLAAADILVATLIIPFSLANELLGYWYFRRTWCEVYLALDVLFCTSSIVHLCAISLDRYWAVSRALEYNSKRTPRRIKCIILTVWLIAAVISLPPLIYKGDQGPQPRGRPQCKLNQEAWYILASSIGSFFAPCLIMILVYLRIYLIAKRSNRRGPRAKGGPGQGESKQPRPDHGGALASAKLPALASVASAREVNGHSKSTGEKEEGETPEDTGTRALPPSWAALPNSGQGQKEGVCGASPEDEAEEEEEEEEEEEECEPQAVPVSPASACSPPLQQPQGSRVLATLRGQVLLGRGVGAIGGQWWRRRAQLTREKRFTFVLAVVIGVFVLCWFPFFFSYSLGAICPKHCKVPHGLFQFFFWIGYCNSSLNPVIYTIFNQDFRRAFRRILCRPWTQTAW
Description: PDSP Primary Binding target: ADRA2B - Compounds are tested at 10 uM concentration, plate are incubated at room temperature in the dark for 90 minutes. Reaction are stopped by vacuum filtration onto 0.3% polyethyleneimine soaked filter mats using Filtermate harvester. Scintilation cocktail is then melted onto microwave-dried filters on a hot plate and the radio activity is counted in Microbia counter.

Experiment [2] deals with T2, Alpha-1D adrenergic receptor (Homo sapiens) (UniProt P25100).
T2 sequence (whole entry): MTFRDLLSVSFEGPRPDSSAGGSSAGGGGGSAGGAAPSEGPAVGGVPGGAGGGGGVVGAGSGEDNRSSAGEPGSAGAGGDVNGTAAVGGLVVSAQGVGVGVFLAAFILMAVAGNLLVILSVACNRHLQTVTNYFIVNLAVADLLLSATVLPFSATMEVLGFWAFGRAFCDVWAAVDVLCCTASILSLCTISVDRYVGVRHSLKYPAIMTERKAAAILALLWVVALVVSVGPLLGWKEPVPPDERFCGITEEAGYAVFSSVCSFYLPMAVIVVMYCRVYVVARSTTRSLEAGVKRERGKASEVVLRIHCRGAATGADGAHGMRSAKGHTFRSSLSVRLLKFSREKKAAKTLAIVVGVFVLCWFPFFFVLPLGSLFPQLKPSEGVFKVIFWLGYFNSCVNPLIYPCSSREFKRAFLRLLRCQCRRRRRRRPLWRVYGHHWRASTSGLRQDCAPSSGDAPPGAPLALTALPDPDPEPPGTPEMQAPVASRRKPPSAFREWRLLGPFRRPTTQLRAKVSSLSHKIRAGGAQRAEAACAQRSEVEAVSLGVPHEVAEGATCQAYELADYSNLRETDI
Description: PDSP Primary Binding target: ADRA1D - Compounds are tested at 10 uM concentration, plate are incubated at room temperature in the dark for 90 minutes. Reaction are stopped by vacuum filtration onto 0.3% polyethyleneimine soaked filter mats using Filtermate harvester. Scintilation cocktail is then melted onto microwave-dried filters on a hot plate and the radio activity is counted in Microbia counter.

Experiment [3] has as its target Delta-type opioid receptor (Homo sapiens) (UniProt P41143).
Description: PDSP Primary Binding target: OPRD1 - Compounds are tested at 10 uM concentration, plate are incubated at room temperature in the dark for 90 minutes. Reaction are stopped by vacuum filtration onto 0.3% polyethyleneimine soaked filter mats using Filtermate harvester. Scintilation cocktail is then melted onto microwave-dried filters on a hot plate and the radio activity is counted in Microbia counter.
In experiment [4] the target is T3, Alpha-1B adrenergic receptor (Homo sapiens) (UniProt P35368).
T3 sequence (whole entry): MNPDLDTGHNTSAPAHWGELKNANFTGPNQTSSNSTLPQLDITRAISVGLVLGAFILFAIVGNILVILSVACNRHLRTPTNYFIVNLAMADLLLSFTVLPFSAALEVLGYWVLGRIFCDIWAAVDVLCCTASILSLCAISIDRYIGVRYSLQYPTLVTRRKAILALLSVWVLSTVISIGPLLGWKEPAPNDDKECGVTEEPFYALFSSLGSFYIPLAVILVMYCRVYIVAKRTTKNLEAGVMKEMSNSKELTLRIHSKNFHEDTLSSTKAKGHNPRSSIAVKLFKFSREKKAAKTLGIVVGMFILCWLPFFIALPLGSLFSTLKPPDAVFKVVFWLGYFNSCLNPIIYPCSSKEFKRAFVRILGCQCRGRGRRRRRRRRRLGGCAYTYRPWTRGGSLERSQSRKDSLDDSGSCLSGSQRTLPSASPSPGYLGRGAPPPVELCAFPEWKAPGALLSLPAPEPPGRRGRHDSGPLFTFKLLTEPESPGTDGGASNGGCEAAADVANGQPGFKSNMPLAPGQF
Description: PDSP Primary Binding target: ADRA1B - Compounds are tested at 10 uM concentration, plate are incubated at room temperature in the dark for 90 minutes. Reaction are stopped by vacuum filtration onto 0.3% polyethyleneimine soaked filter mats using Filtermate harvester. Scintilation cocktail is then melted onto microwave-dried filters on a hot plate and the radio activity is counted in Microbia counter.

Experiment [5] concerns the target Mu-type opioid receptor (Homo sapiens) (UniProt P35372).
Description: PDSP Primary Binding target: OPRM1 - Compounds are tested at 10 uM concentration, plate are incubated at room temperature in the dark for 90 minutes. Reaction are stopped by vacuum filtration onto 0.3% polyethyleneimine soaked filter mats using Filtermate harvester. Scintilation cocktail is then melted onto microwave-dried filters on a hot plate and the radio activity is counted in Microbia counter.
Experiment [6] concerns the target T4, Muscarinic acetylcholine receptor M2 (Homo sapiens) (UniProt P08172).
T4 sequence (whole entry): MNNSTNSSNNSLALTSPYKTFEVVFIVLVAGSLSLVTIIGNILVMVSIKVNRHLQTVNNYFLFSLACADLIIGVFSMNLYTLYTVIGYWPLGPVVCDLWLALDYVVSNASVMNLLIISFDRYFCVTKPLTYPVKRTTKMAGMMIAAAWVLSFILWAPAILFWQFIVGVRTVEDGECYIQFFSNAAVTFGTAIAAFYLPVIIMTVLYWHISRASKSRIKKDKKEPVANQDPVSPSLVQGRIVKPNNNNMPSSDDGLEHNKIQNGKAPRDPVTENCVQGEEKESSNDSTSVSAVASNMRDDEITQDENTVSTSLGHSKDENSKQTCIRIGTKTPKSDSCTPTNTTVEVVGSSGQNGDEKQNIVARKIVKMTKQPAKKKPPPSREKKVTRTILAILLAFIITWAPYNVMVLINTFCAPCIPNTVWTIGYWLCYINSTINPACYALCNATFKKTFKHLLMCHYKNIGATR
Description: PDSP Primary Binding target: CHRM2 - Compounds are tested at 10 uM concentration, plate are incubated at room temperature in the dark for 90 minutes. Reaction are stopped by vacuum filtration onto 0.3% polyethyleneimine soaked filter mats using Filtermate harvester. Scintilation cocktail is then melted onto microwave-dried filters on a hot plate and the radio activity is counted in Microbia counter.

Experiment [7] concerns the target Sodium-dependent serotonin transporter (Homo sapiens) (UniProt P31645).
Description: PDSP Primary Binding target: SLC6A4 - Compounds are tested at 10 uM concentration, plate are incubated at room temperature in the dark for 90 minutes. Reaction are stopped by vacuum filtration onto 0.3% polyethyleneimine soaked filter mats using Filtermate harvester. Scintilation cocktail is then melted onto microwave-dried filters on a hot plate and the radio activity is counted in Microbia counter.
The target of experiment [8] is T5, Alpha-2A adrenergic receptor (Homo sapiens) (UniProt P08913).
T5 sequence (whole entry): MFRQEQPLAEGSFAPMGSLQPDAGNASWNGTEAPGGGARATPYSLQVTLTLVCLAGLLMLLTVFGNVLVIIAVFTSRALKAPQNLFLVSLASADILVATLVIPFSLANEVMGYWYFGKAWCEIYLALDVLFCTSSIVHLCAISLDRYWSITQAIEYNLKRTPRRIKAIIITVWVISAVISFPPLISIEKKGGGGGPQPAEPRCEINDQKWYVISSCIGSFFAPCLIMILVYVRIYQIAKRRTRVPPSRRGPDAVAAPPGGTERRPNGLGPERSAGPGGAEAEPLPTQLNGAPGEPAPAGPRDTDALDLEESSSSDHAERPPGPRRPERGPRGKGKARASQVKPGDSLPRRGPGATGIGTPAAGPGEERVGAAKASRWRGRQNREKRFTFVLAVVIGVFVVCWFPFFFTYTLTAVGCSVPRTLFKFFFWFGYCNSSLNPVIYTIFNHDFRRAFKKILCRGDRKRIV
Description: PDSP Primary Binding target: ADRA2A - Compounds are tested at 10 uM concentration, plate are incubated at room temperature in the dark for 90 minutes. Reaction are stopped by vacuum filtration onto 0.3% polyethyleneimine soaked filter mats using Filtermate harvester. Scintilation cocktail is then melted onto microwave-dried filters on a hot plate and the radio activity is counted in Microbia counter.

Experiment [9] addresses 5-hydroxytryptamine receptor 6 (Homo sapiens) (UniProt P50406).
Description: PDSP Primary Binding target: HTR6 - Compounds are tested at 10 uM concentration, plate are incubated at room temperature in the dark for 90 minutes. Reaction are stopped by vacuum filtration onto 0.3% polyethyleneimine soaked filter mats using Filtermate harvester. Scintilation cocktail is then melted onto microwave-dried filters on a hot plate and the radio activity is counted in Microbia counter.

Mu-type opioid receptor (Homo sapiens), sequence (P35372 whole entry): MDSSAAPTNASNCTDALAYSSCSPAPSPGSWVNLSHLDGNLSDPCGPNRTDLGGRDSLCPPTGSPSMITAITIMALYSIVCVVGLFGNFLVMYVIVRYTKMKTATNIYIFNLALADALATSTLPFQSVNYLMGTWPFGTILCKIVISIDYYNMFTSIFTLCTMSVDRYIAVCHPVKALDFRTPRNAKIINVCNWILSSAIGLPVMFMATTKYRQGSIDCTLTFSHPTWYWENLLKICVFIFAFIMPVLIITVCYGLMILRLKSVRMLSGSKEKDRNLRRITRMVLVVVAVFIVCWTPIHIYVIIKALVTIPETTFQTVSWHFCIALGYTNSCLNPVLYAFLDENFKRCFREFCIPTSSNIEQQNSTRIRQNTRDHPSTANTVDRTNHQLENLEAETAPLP
Sodium-dependent serotonin transporter (Homo sapiens), sequence (P31645 whole entry, looked up): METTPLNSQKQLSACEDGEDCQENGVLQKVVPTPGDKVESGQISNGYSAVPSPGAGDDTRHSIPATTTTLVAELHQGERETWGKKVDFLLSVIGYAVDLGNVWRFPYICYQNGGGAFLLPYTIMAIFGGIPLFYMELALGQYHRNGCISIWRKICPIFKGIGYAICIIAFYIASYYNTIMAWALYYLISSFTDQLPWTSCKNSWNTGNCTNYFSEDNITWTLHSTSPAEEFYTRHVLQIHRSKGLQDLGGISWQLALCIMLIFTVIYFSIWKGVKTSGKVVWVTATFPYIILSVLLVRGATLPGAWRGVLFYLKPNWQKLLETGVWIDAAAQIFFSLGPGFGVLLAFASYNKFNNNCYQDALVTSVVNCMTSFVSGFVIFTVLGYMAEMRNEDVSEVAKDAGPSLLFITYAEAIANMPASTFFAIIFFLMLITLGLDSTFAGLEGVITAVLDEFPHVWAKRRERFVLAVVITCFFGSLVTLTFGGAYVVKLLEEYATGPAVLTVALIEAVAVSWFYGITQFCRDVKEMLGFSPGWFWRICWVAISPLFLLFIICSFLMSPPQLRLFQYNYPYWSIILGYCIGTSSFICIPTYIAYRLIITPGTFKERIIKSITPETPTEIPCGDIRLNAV
5-hydroxytryptamine receptor 6 (Homo sapiens), sequence (P50406 whole entry): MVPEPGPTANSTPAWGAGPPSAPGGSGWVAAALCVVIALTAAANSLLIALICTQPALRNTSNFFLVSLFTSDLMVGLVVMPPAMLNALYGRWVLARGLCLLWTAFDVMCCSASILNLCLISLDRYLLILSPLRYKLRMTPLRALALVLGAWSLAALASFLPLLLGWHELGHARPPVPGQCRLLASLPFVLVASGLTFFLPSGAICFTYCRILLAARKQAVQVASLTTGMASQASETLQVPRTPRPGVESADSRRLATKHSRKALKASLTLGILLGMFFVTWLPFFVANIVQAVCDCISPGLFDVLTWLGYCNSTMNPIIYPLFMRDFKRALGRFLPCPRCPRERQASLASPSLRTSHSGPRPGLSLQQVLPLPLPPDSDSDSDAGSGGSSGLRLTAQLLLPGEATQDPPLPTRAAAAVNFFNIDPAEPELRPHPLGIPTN
Delta-type opioid receptor (Homo sapiens), sequence (P41143 whole entry): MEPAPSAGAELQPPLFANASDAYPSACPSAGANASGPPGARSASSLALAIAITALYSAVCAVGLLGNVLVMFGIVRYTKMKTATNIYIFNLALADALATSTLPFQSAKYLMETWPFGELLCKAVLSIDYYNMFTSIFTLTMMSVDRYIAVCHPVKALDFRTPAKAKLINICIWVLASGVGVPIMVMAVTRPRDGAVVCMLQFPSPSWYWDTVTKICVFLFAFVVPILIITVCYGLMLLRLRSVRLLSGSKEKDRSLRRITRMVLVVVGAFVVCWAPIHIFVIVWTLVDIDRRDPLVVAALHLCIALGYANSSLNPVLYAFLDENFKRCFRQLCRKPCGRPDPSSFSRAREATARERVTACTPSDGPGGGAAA

With `N#Cc1ccc(NC(=O)Nc2ccccc2Br)c2nn[nH]c12`, the inhibition in [1] was -2.75%; in experiment [2], -7.75%; in experiment [3], 16.4%; in experiment [4] it was 13.2%; in experiment [5] it was 27.1%; in [6] it was 29.7%. Further, the inhibition in [7] is 26.5%.
With `NCCc1c[nH]c2ccc(C(N)=O)cc12`, the inhibition in experiment [1] was 24.8%; in experiment [2] it was 14.8%; in experiment [8] it was 69.8%; in experiment [3], -3.42%; in experiment [4], 3.04%; in [5] it was 28.8%. Also, the inhibition in experiment [6] was 7.09%; in experiment [9], 88.4%; in experiment [7], 49.3%.
As to `C[N+]1(C)[C@@H]2C[C@@H](OC(=O)C(O)(c3cccs3)c3cccs3)C[C@H]1[C@@H]1O[C@@H]12`, the inhibition in experiment [1] is 8.74%; in experiment [2], 13.1%; in experiment [8], 6.5%; in experiment [3] it was -1.59%; in experiment [4] it was -7.35%; in [5], 10.3%. Besides, the results for the inhibition in [6], in [9] and in experiment [7] were 94.2%, -5.82% and 30%, respectively.
As to `NCCc1cn(S(=O)(=O)c2c(Cl)nc3sccn23)c2ccccc12`, the inhibition is 47.2% in [1]; 38.2% in experiment [2]; 93.4% in [8]; 6.57% in experiment [3]; 51.4% in [4]; 16.8% in [5]. For the same molecule, the inhibition in experiment [6] was 15.1%; in experiment [9], 99.3%; in [7] it was 40.4%.
As to `COc1ccc(CNC(=O)c2cc(-c3cncc(Cl)c3)cnc2-c2ccccn2)nc1OC`, the inhibition was -7.15% in experiment [1]; -7.71% in [2]; -4.67% in experiment [3]; 0.01% in experiment [4]; 30.5% in experiment [5]; 10.6% in [6]. Moreover, the inhibition was 14.4% in experiment [9] and 23.7% in [7].
In the case of `c1cc(CN2CCCNCCNCCCNCC2)ccc1CN1CCCNCCNCCCNCC1`, the inhibition in experiment [1] is -9.59%; in [2] it was -0.54%; in experiment [8], 7.87%; in experiment [3], -4.5%; in [4] it was 42.2%; in experiment [5], 13.8%. Further, the inhibition in experiment [6] was 67.7%; in experiment [7] it was 22.7%.
`COc1ccc(NC(=O)c2ccc(-c3ccc(-c4noc(C)n4)cc3C)cc2)cc1OCCN(C)C`: the inhibition was 77.3% in [1]; 38% in experiment [2]; 99.4% in [8]; 0.83% in experiment [3]; 26.8% in experiment [4]; 5.21% in [5]. Also, the results for the inhibition in [6] and in experiment [7] were 80.8% and 55.4%, respectively.
Consider `Cc1cn2cc(CC(=O)N3CCC4(CC3)CN(Cc3ccc(-n5nccn5)cc3Cl)C4)nc2s1`, for which the inhibition is 11% in [1]; 13.3% in [2]; 9.33% in experiment [8]; 18.8% in experiment [3]; 33.4% in experiment [4]; 21.4% in experiment [5]. The inhibition was 68.5% in [6], 17.5% in [9] and 11.6% in experiment [7].
Take `CN1CCC(C(=O)c2cccc(NC(=O)c3c(F)cc(F)cc3F)n2)CC1`: the inhibition in experiment [1] is 20.8%; in experiment [2], 6.55%; in [8], 19.9%; in experiment [3] it was 1.97%; in [4] it was 8.88%; in [5], 10.5%. Also, the inhibition in experiment [6] was -1.5%; in experiment [9] it was 11.4%; in experiment [7], 10.4%.
On to `CN[C@@H]1CCc2[nH]c3ccc(C(N)=O)cc3c2C1`, for which the inhibition was 13.7% in experiment [1]; 19.6% in experiment [2]; 31% in experiment [8]; 2.74% in [3]; 93.5% in experiment [4]; 54.7% in experiment [5]. Moreover, the figures for the inhibition in experiment [6], in [9] and in experiment [7] were 10.5%, 24.2% and 7.67%, respectively.
For the molecule `Cc1ccc(O)c([C@H](CCN(C(C)C)C(C)C)c2ccccc2)c1`, the inhibition in experiment [1] was 36.7%; in experiment [2], 1.72%; in experiment [8], 20.2%; in experiment [3] it was -8.98%; in experiment [4] it was 17.4%; in [5], -3.49%. Besides, the inhibition in [6] was 97.6%; in [7], 20.8%.
With `O=C(O)C1CN(Cc2ccc(OCc3ccc(Cl)c(Cl)c3)cc2)C1`, the inhibition in experiment [1] is 35.4%; in [2], -5.42%; in [8], 29.7%; in experiment [5], 1.29%; in experiment [6] it was -5.07%; in experiment [9], 5.45%. The inhibition in experiment [7] was -9.84%.
Take `N[C@H](C(=O)O)c1ccc(C(=O)O)c(C(=O)O)c1`: the inhibition in [1] was -4.38%; in experiment [2], 10.3%; in [3], 13.1%; in experiment [4] it was -0.2%; in [5], 29.8%; in experiment [6], 45%. Moreover, the figures for the inhibition in experiment [9] and in experiment [7] were 4.51% and 69.3%, respectively.
Turning to `Cc1nc(-c2ccc(C(F)(F)F)cc2)sc1COc1ccc([C@H](CC(=O)O)c2ccon2)cc1`, the inhibition in experiment [1] was -6.48%; in [2] it was -8.39%; in [3], 23%; in experiment [4] it was 69%; in [5] it was -7.02%; in experiment [6] it was 25.2%. Moreover, the values for the inhibition in experiment [9] and in experiment [7] were 20.3% and 21.4%, respectively.

The term inhibition denotes the drop in the measured response relative to a control, in per cent.

The values are drawn from ChEMBL document CHEMBL5442219.
